This passage reports LC50 and mortality results from patent US20260198495A1, “BINARY INSECTICIDE COMPOSITION AND USE THEREOF” (SHENYANG SINOCHEM AGROCHEMICALS R & D CO., LTD., priority 2022, published 2026).

Common to all, as to format: in vivo
Assay [1] has as its system adult Tetranychus urticae Koch. Description: Joint toxicity of I-72 + spirobudifen, Example 29, Table 29. Conditions: A = compound I-72, B printed spirotetramat (title: spirobudifen), potted-seedling spraying, 72 hours, read-out: LC50. As for the experimental part:
(§1) Preparation of the pesticide solution: according to different test requirements, the test samples were accurately weighed respectively with an electronic analytical balance. The technical pesticides were dissolved in acetone, and then diluted with 0.1% Tween 80 water into a series of pesticide solutions with a certain concentration gradient according to the experimental design dosage.
In addition, a blank control was set up.
The treated test materials were placed in an observation room, and the temperature, humidity and illumination of the observation room could be adjusted as needed.

In assay [2] the test system is 2nd-instar larvae of Plutella xylostella. Description: Joint toxicity of I-72 + spiropidion, Example 31, Table 31. The following applies: Plutella xylostella, foliar; A = compound I-72, B = spiropidion; cabbage leaf dipping; 72 hours; read-out: LC50. As to the method: (§2) Test target: 2nd-instar larvae of Plutella xylostella.
as §1
Experimental method: first, cabbage leaves were selected and dipped in the prepared pesticide solution for 10 s in the order from low dosage to high dosage according to the experimental design. After natural air-drying in the shade, they were placed in a 9-cm-diameter Petri dish with filter paper, and uniform and healthy test insects were introduced, with 10 insects for each treatment and 3 replicates for each treatment. In addition, a blank control was set up.
(§3) The treated test materials were placed in an observation room, and the temperature, humidity and illumination of the observation room could be adjusted as needed. The number of dead and live insects was investigated 72 hours later. […] Then, the co-toxicity coefficient of each ratio was calculated using the Sun Y-P method to evaluate the mixing effect (the same as in Example 1).

Assay [3] relates to Bemisia tabaci (Gennadius) nymphs. Description: Joint toxicity of I-72 + bifenthrin, Example 40, Table 40. The following applies: A = compound I-72, B = bifenthrin, cotton leaf-disk spraying, 96 hours, read-out: LC50. As for the experimental part: (§4) Test target: Bemisia tabaci (Gennadius) nymphs, a sensitive strain reared indoors.
as §1
(§5) Experimental method: first, cotton leaves with neat and consistent Bemisia tabaci (Gennadius) nymphs were selected and made into leaf disks, with about 20 insects on each leaf disk. Then, they were evenly sprayed with the pesticide solution in the order from low dosage to high dosage according to the experimental design, with 1.5 mL for each leaf and 3 replicates for each treatment. In addition, a blank control was set up.
(§6) The treated test materials were placed in an observation room, and the temperature, humidity and illumination of the observation room could be adjusted as needed. The number of dead and live insects was investigated 96 hours later. […] Then, the co-toxicity coefficient of each ratio was calculated using the Sun Y-P method to evaluate the mixing effect (the same as in Example 1).

In assay [4] the test system is 2nd-instar larvae of Plutella xylostella. Description: Synergism screening (Bliss) of I-72 + insect attractants and insecticides, Example 49, Table 49. The following applies: Plutella xylostella; single pesticide, 0.1 mg/L; 72 hours; read-out: Measured mortality rate. As for the experimental part: as §2, §1
Experimental method: first, cabbage leaves were selected and dipped in the prepared pesticide solution for 10 s in the order from low dosage to high dosage according to the experimental design. After natural air-drying in the shade, they were placed in a 9-cm-diameter Petri dish with filter paper, and uniform and healthy test insects were introduced, with 10 insects for each treatment and 3 replicates for each treatment. In addition, a blank control CK was set up.
The treated test materials were placed in an observation room, and the temperature, humidity and illumination of the observation room could be adjusted as needed. The number of dead and alive insects was investigated 72 hours later, and the corrected mortality rate was calculated using the Abbott's formula.
The synergism of the mixture was evaluated by adopting the Bliss method, as in Example 5.

Assay [5] relates to Thrips flavus Schrank nymphs. Description: Joint toxicity of I-72 + tolfenpyrad, Example 62, Table 62. Conditions: A = compound I72, B = tolfenpyrad, eggplant seedling spraying, 48 hours, read-out: LC50. As for the experimental part: Test target: Thrips flavus Schrank nymphs.
as §1
Experimental method: first, eggplant seedlings with Thrips flavus Schrank were selected, and the base number was counted. Then, uniform spraying was performed with the pesticide solution in the order from low to high doses according to the experimental design, with 2 mL for each seedling and 3 replicates for each treatment. In addition, a blank control was set up.
The treated test materials were placed in an observation room, and the temperature, humidity and illumination of the observation room could be adjusted as needed. The number of dead and live insects was investigated 48 hours later. […] Then, the co-toxicity coefficient of each ratio was calculated using the Sun Y-P method to evaluate the mixing effect (the same as in Example 1).

A further assay has as its system Aphis craccivora nymphs. Description: whole plant or invertebrate. The following applies: A = compound I-72, B = sulfoxaflor, broad bean seedling spraying, 48 hours, read-out: LC50. As to the method:
Test target: Aphis craccivora nymphs, a sensitive strain reared indoors.
as §1
Experimental method: first, broad bean seedlings with uniform and consistent Aphis craccivora were selected, with about 30-40 insects on each seedling. Then, they were evenly sprayed with the pesticide solution in the order from low dosage to high dosage according to the experimental design, with 1.5 mL of the solution for each leaf and 3 replicates for each treatment. In addition, a blank control was set up.
The treated test materials were placed in an observation room, and the temperature, humidity and illumination of the observation room could be adjusted as needed. The number of dead and live insects was investigated 48 hours later.

The subject of assay [6] is Bemisia tabaci (Gennadius) nymphs. Description: Joint toxicity of I-72 + pyrifluquinazon, Example 77, Table 77. Conditions: Bemisia tabaci; A = compound I-72, B = pyrifluquinazon; cotton leaf-disk spraying; 96 hours; read-out: LC50. As for the experimental part: as §4, §1, §5, §6
In assay [7] the test system is 3rd-instar larvae of Ostrinia furnacalis Guenee. Description: Joint toxicity of I-72 + pymetrozine, Example 79, Table 79. The following applies: A = compound I-72, B = pymetrozine, corn stem dipping, 72 hours, read-out: LC50. As for the experimental part: Test target: 3rd-instar larvae of Ostrinia furnacalis Guenee.
as §1
Experimental method: first, tender corn stems were selected and dipped in the prepared pesticide solution for 10 s in the order from low dosage to high dosage according to the experimental design. After natural air-drying in the shade, they were placed in a 9-cm-diameter Petri dish with filter paper, and uniform and healthy test insects were introduced, with 10 insects for each treatment and 3 replicates for each treatment. In addition, a blank control was set up.
as §3

The structures appear in SMILES notation. ≈ marks a conversion by molar mass, not a printed value.

For `CN(C(=O)c1ccc2c(c1)OC(F)(F)O2)c1cccc(C(=O)Nc2c(Br)cc(C(F)(C(F)(F)F)C(F)(F)F)cc2OC(F)F)c1F` [Compound I-72], the median lethal concentration (LC50) in assay [1] is 41.6 µg/mL; in assay [2] it was 0.0876 µg/mL; in assay [3] it was 10.9 µg/mL; in assay [5], 2.02 µg/mL; in the assay with Aphis craccivora nymphs, 2.52 µg/mL (≈ 3.41 µM); in assay [6], 10.8 µg/mL. In assay [7], the LC50 was found to be 0.801 µg/mL. The mortality at 0.1 µg/mL in assay [4] was determined as 46.9%.

Usually LC50 stands for the concentration that kills 50% of the test population. For orientation: mortality means the share of the test organisms that died.
